The values that follow come from patent US9221800B2, “Isoxazole treatments for diabetes” (The Board of Regents of the University of Texas System, priority 2011, dated 2015).

In one experiment the test system is MIN6 cells. In words: Insulin secretion (GSIS) and insulin content in MIN6 cells. The format is cell-based, mouse. On the procedure:
(§1) MIN6 cells were cultured in DMEM (Gibco), containing 25 mM glucose, 10% fetal bovine serum, 10 mM Hepes pH 7.4, 10.2 mM L-glutamine, […] sodium pyruvate, 2.5 mM β-mercaptoethanol, 100 U/ml penicillin and 100 μg/ml streptomycin at 37° C. in 10% CO2. Human islets were obtained from the ICR Basic Science Islet Distribution and from the University of Alabama, Birmingham Islet Resource Facility and were cultured in RPMI 1640 with 11 mM glucose for up to 1 year. The medium was changed twice weekly and the islets were subcultured when they reached 90% confluence. For Isx treatments, cells were incubated in medium containing either Isx or the equivalent volume of DMSO vehicle (0.04%). To measure GSIS, cells were placed in Krebs-Ringer bicarbonate/Hepes containing 0.1% bovine serum albumin and 2 mM glucose for 2 h, and stimulated for 15 min with 20 mM glucose, a 1× amino-acid mixture (concentrations as in DMEM), or 50 nM Exendin-4. U0126 (10 μM), nifedipine (3 μM), BAPTA (10 μM), wortmanin (0.5 μM) or FK506 (0.1 μM) were added for 1-24 h as indicated.

A further experiment has as its system human islets. Put plainly: Insulin secretion and insulin content (ELISA) of cultured human islets. It is filed as cell-based. As to the method: FIGS. 1A-E. Isx (LSH-1) induces expression of insulin and transcription factors in primary cultured human islets. (FIG. 1A) Primary human islets that had been cultured in RPMI 160 for 6 months were treated with vehicle or 40 μM Isx for 1 or 2 d. Expression of human insulin and glucagon genes was assessed by Taqman quantitative RT-PCR. (FIG. 1B) Insulin secretion measured by ELISA over 24 h from islets treated with Isx or vehicle for 1 or 2 d. (FIG. 1C) Total insulin content of islets cultured for 3 mo and fresh islets, each treated for 48 h with Isx or DMSO. (FIG. 1D) Time course of pancreatic gene induction in islets cultured for 1 year treated with DMSO (8 days) or 40 μM Isx for 2, 4 or 8 days. (FIG. 1E) Immunohistochemical staining using antibodies against insulin, BETA2, Neurogenin3 (Ngn3) and MafA of islets cultured for 2 months and treated with Isx or vehicle for 48 h. Nuclei were stained with DAPI.
FIGS. 5A-E. Gene expression induced by Isx (LSH-1) in human islet cultures. (FIG. 5A) Structure of the lead compound N-cyclopropyl-5-(thiophen-2-yl)isoxazole-3-carboxamide (Isx) used in this study. (FIG. 5B) Expression profiles of relevant islet factors by Sybr-Green qPCR analyses from human islets cultured for 1 year as in FIG. 1D. (FIG. 5C) Insulin immunohistochemical staining in human islets cultured for 2 months. Nuclei are stained with DAPI. (FIG. 5D) Immunoblotting of whole cell extracts from human islets cultured for six months treated with vehicle (DMSO) or Isx for 24 h. (FIG. 5E) Human islets cultured for 6 months were treated with DMSO (Veh) or Isx for 48 h. To implicate signaling pathways that are required for the isoxazole-driven increase in β cell function, measured as GSIS, the isoxazole-treated islets were also treated with vehicle (Veh), 10 μM U0126 (U), 10 μM Nifedipine-BAPTA (N-B), or 0.1 μM wortmannin (W) for the duration of the isoxazole treatment.
as §1, with “To measure GSIS, cells were placed in Krebs-Ringer bicarbonate/Hepes containing 0.1% bovine serum albumin and 2 mM glucose for 2 h, and stimulated for 15 min with 20 mM glucose, a 1× amino-acid mixture (concentrations as in DMEM), or 50 nM Exendin-4. U0126 (10 μM), nifedipine (3 μM), BAPTA (10 μM), wortmanin (0.5 μM) or FK506 (0.1 μM) were added for 1-24 h as indicated.” left out
A general note: An ELISA detects its analyte on a solid surface through an enzyme-linked reagent.

In a further experiment the test system is insulin gene promoter. Put plainly: ChIP analysis of association with the insulin promoter in MIN6 cells. It is filed as cell-based, mouse. On the procedure: ChIP was as described (Lawrence et al., 2008) with the following modifications. Chromatin was cross-linked with 1% formaldehyde and sonicated with a Bioruptor 200 (Diagenode) in an ice cold water bath. Antibodies immobilized on protein A-Sepharose beads were used for immunoprecipitation. ChIP products were analyzed by real-time Q-PCR as previously described for real-time PCR analysis (Lawrence et al., 2008) using the following primers (5′-CAGACCTAGCACCAGGG-3′ (SEQ ID NO:1) and 5′-GGACTTTGCTGTTTGTCCC-3′ (SEQ ID NO:2)) to amplify the −157/−50 fragment of the mouse insulin promoter encompassing the C1 (MafA), E1 (BETA2) and A1 (PDX-1) binding sites. The results were expressed relative to input and presented as mean+/− SEM of at least two independent experiments in triplicate.

Each structure is given as a SMILES string.

As for `O=C(NC1CC1)c1cc(-c2cccs2)on1` [Isx, N-cyclopropyl-5-(thiophen-2-yl)isoxazole-3-carboxamide], in the experiment on MIN6 cells (Isx 24 or 48 h (FIG. 2D)), the insulin content result is “relatively small increase”. Besides, in the experiment with MIN6 cells (Isx pretreatment 48 h (FIG. 2C)), the “Glucose-stimulated insulin secretion (GSIS) increase” value is reported as roughly 4 fold. Also, in the experiment on MIN6 cells (Isx pretreatment 48 h (FIG. 2E)), the “increase of stimulation of insulin secretion by glucose, amino acids and exendin-4, individually and in combination” value is reported as 2 to 5 fold. For the same compound, the “increase of insulin content of fresh islets” value in the experiment with human islets (2-day exposure to Isx) was roughly 25%. In the experiment with human islets (3 month-old islets treated with Isx (FIG. 1C)), the “Insulin content relative to the insulin content of islets isolated only 1 week earlier” value is listed as roughly 75%. The compound also came in with an Insulin content increase with human islets (3 month-old islets, Isx 48 h (FIG. 1C)) of roughly 10 fold. Also, in the experiment on human islets (human islets in culture for 6 months, Isx 1 or 2 d (FIG. 1B)), the “Insulin secreted over a 24-h period” value was “markedly increased”. Further, the “Chromatin recruitment of p300 to the insulin promoter upon stimulation by glucose” value with insulin gene promoter (Isx pretreatment 24 h) is reported as “increased”. In addition, the “chromatin binding of BETA2 and MafA to the insulin gene promoter” value with insulin gene promoter (compared with glucose stimulation (FIGS. 3D-E)) was “Comparable or greater”.
